Data on one molecule can be found in article PMC10955127 (Frontiers in Pharmacology, 2024).

The term NOAEL denotes the highest dose or exposure tested at which no adverse effect was seen. For orientation: half-life means the time needed for the level to fall by half in the phase considered. As a reminder, the hepatocyte CLint is the rate of metabolic loss divided by the concentration. Low readings indicate slow turnover, high ones rapid turnover.

“Also recorded” adds a separate entry of the source. Read-outs that look alike come from different tables or passages of the source.

Series [1] deals with androgen receptor. Also noted: method as in ToxCast database. The following applies: ref ToxCast database; cited from earlier work.
The test system of series [2] is androgen receptor. On the set-up: method as in ToxCast database. Conditions: ref ToxCast database; cited from earlier work. This is another data set of the same source.
For a further series, the system named is thyroid pathway. On the set-up: method as in ToxCast database. The following applies: ref ToxCast database; cited from earlier work.
In the next series the test system is androgen receptor (AR). Also noted: method as in ToxCast. Conditions: ref ToxCast, cited from earlier work.
For another series, the system named is rats. The following applies: teratogenic and embryotoxic effects; ref SCCS, 2023b; cited from earlier work.
For series [3] the following is noted: ref PubChem or the ECHA database; cited from earlier work.
The next series has as its system Aromatase. On the set-up: method as in ToxCast database. The following applies: ref ToxCast database; cited from earlier work.
The next series concerns THRa. On the set-up: method as in ToxCast database. Conditions: ref ToxCast database; cited from earlier work.
The next series in a line: in vitro. It counts as in vitro ADME. The procedure: […]. Samples were precipitated with an equal volume of acetonitrile containing internal standards (1 μM diazepam, 1 μM griseofulvin, 10 μM diclofenac) and then centrifuged (4800 x g, room temperature, 5 min) before analysis by UHPLC-MS/HRMS.
The amount of compound in the samples was expressed as percentage of remaining compound compared to time point zero (=100%). These percentages were plotted against the corresponding time points. In vitro intrinsic clearance (CLint) and half-life (t1/2) estimates were determined using the rate of precursor disappearance and following formula, based on the well-stirred liver model (Obach 1999):
t1/2 = half-life [min]; k = slope from the linear regression of log [test compound] versus time plot [1/min]
Where CLint = in vitro intrinsic clearance [μl/min/10^6 cells]; t1/2 = half-life [min]; k = slope of the linear regression of log [test compound] versus time plot [1/min]; V = ratio of incubation volume and cell number and fu = unbound fraction in the blood. […]

In a further series the test system is estrogen receptor. On the set-up: method as in ToxCast database. Conditions: ref ToxCast database; cited from earlier work.
The next series has as its target COX1(h) (Homo sapiens, UniProt P23219). In words: Pharmacology profiling: COX1. It counts as biochemical.
A further series concerns the target Human MRP4 (Homo sapiens, UniProt O15439). The following applies: not told.
Another series deals with hPTCs. The following applies: human, 72 h.

Chain of COX1(h) (P23219 24-599): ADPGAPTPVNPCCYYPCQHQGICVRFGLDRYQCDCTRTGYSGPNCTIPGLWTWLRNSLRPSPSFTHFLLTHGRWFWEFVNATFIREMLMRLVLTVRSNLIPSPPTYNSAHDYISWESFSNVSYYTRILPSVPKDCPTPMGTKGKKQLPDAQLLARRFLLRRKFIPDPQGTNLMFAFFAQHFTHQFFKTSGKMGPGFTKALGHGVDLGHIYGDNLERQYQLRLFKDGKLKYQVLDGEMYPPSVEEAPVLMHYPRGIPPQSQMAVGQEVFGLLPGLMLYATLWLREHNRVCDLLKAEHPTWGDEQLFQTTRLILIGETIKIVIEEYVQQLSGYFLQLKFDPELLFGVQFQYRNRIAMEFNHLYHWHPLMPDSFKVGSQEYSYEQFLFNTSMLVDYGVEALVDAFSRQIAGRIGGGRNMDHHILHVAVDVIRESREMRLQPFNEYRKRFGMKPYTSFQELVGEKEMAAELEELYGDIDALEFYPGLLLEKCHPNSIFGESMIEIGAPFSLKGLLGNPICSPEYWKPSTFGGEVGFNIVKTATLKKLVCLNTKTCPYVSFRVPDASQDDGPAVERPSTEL
Chain of Human MRP4 (O15439 whole entry): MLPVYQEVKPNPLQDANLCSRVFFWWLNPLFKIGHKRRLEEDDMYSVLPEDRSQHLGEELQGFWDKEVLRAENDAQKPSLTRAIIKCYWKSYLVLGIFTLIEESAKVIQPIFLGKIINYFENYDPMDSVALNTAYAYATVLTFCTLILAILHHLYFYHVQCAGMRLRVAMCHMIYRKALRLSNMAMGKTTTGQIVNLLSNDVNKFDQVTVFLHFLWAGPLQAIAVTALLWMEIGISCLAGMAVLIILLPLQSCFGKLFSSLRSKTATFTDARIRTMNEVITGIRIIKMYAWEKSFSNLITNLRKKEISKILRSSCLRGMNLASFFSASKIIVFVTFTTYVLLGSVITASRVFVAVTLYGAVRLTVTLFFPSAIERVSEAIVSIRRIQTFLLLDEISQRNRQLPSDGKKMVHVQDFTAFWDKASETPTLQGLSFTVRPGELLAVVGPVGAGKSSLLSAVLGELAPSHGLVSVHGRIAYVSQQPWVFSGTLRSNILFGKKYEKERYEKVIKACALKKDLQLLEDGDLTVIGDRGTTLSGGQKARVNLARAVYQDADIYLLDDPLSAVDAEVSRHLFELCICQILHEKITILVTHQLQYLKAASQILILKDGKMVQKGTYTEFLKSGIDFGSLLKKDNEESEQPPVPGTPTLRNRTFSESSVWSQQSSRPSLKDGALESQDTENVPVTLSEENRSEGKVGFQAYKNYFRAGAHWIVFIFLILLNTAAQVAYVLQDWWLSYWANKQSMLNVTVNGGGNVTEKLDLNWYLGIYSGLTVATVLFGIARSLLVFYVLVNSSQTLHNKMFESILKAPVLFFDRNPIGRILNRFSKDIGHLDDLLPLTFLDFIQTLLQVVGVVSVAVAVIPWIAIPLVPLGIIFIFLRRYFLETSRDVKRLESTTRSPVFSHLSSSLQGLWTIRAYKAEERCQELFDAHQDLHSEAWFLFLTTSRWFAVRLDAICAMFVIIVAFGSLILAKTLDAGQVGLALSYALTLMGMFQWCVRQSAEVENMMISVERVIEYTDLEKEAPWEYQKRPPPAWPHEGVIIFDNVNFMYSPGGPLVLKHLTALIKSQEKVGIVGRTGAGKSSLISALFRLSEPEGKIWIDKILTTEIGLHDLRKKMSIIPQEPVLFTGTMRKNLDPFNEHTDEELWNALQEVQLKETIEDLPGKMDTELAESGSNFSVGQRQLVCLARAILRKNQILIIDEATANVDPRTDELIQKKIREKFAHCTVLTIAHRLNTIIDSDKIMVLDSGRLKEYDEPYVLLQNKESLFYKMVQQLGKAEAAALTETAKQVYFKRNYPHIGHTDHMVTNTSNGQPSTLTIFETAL

Consider `O=C(O)c1ccccc1O` [SA, salicylic acid], for which, in the series with androgen receptor [1], the “Androgen pathway Dimerisation: Call” value is “Negative”. The “Androgen pathway receptor binding: Call” value with androgen receptor [2] is listed as “Negative”. Moreover, the “Thyroid pathway Reporter protein Agonist: Call” value with thyroid pathway is on record as “Negative”. In addition, in the series on androgen receptor (AR) (Tier 0), the “Androgen: Experimental Data (call)” value is reported as “Negative”. In the series with androgen receptor (AR), the “Androgen: assays active / assays” value is on record as 1/15 active (noise). The NOAEL in the series with rats is 75 mg/kg bw. Further, in [3], the Vapor pressure is on record as 0.0208 Pa. Besides, the “Steroidogenesis Aromatase: Call” value in the series on Aromatase is given as “Negative”. For the same molecule, in the series on THRa, the “Thyroid pathway receptor binding (THRa): Call” value is “Negative”. Besides, the “Further metabolism in PHH” value in the series “in vitro” was “not metabolized further”; in the series “in vitro” (both, human, 240 min, 20 µM), “not further metabolized”. Also, in “in vitro” (both sexes, human, hepatocytes, Half-life in PHH), the half-life at 20 µM is greater than 15.8 h. Further, in the series “in vitro” (both sexes, human, hepatocytes, In vitro intrinsic clearance (CLint, in vitro)), the hepatocyte CLint at 20 µM was roughly 0.9 µL/min/1e6 cells. Moreover, the “Estrogen pathway mRNA induction: Call” value in the series with estrogen receptor is reported as “Negative”. The “Inhibition of COX1, screening” value on COX1(h) (10 µM) is “did not inhibit”. Besides, on COX1(h) (up to 10 mM), the “Inhibition of COX1, follow-up” value is listed as “did not inhibit; also recorded: no effect”. Moreover, the “Substrate of MRP4 (efflux)” value on Human MRP4 is “not a substrate”. In the series with hPTCs, this molecule showed a PoD greater than 300 µM.
